From patent publication US20110021565A1, “PIPERIDINE DERIVATIVES AS NK3 ANTAGONISTS” (priority 2007, published 2011)
Where two headings read alike, the source gives them in different places.

Biological target: T1, recombinant human NK3 receptor (Homo sapiens, UniProt P29371)
T1 construct: expressed in transfected cells; host or cells: HEK293 cells, transient expression; membrane preparation
T1 sequence (P29371 1-465): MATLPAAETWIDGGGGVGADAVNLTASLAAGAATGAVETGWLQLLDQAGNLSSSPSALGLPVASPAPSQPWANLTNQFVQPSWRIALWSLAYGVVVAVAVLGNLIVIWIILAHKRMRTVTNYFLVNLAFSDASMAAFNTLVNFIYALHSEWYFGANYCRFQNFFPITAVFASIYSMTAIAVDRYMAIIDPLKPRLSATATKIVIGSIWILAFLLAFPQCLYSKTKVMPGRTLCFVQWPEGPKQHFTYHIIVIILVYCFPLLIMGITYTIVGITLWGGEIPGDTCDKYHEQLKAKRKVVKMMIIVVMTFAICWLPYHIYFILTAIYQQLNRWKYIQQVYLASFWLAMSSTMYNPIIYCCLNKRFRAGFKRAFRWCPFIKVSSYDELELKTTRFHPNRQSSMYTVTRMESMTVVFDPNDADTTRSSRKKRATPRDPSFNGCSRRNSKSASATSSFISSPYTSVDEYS
Experiment: [3H]SR142801 competition binding assay
How it was run: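 Ki derived by Cheng-Prusoff from Hill-fitted IC50 curves, duplicates, 10 μM SB222200 defining nonspecific binding. Radioligand used at KD concentration against compound at 0.0003-10 μM; transiently transfected HEK293 membranes, 5 μg/well, 75 min room temperature, Tris-HCl/MnCl2/phosphoramidon/BSA pH 7.4. Filter-bound counts read by scintillation.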

[1] = [3H]SR142801, membranes of HEK293 cells transiently expressing recombinant human NK3 receptor, read-out: hNK3 Ki
[2] = representative compounds, [3H]SR142801, HEK293 membranes, human NK3 receptor, read-out: Ki NK3 h

**Q.** With CN(C1CCN(CCC(C)(C(=O)NCc2ccccc2)c2ccc(Cl)c(Cl)c2)CC1)S(C)(=O)=O (stereo not shown) [Example 52, N-Benzyl-2-(3,4-dichloro-phenyl)-4-[4-(methanesulfonyl-methyl-amino)-piperidin-1-yl]-2-methyl-butyramide] as the molecule, how does the Ki [1] read?
**A.** The Ki was 64.8 nM.

**Q.** Which Ki [1] does the source give for CN(Cc1ccc(C(F)(F)F)c(F)c1)C(=O)C(F)(CCN1CCC(N(C)S(C)(=O)=O)CC1)c1ccc(Cl)c(Cl)c1 (stereo not shown) [Example 53, 2-(3,4-Dichloro-phenyl)-2-fluoro-N-(3-fluoro-4-trifluoromethyl-benzyl)-4-[4-(methanesulfonyl-methyl-amino)-piperidin-1-yl]-N-methyl-butyramide] here?
**A.** Its Ki is 18.3 nM.

**Q.** For CN(Cc1ccc(Cl)c(C(F)(F)F)c1)C(=O)C(F)(CCN1CCC(N(C)S(C)(=O)=O)CC1)c1ccc(Cl)c(Cl)c1 (stereo not shown) [Example 54, N-(4-Chloro-3-trifluoromethyl-benzyl)-2-(3,4-dichloro-phenyl)-2-fluoro-4-[4-(methanesulfonyl-methyl-amino)-piperidin-1-yl]-N-methyl-butyramide], which Ki [1] is on record?
**A.** Its Ki is 24.5 nM.

**Q.** How did the Ki [1] turn out when CN(Cc1ccc(F)c(C(F)(F)F)c1)C(=O)C(F)(CCN1CCC(N(C)S(C)(=O)=O)CC1)c1ccc(Cl)c(Cl)c1 (stereo not shown) [Example 55, 2-(3,4-Dichloro-phenyl)-2-fluoro-N-(4-fluoro-3-trifluoromethyl-benzyl)-4-[4-(methanesulfonyl-methyl-amino)-piperidin-1-yl]-N-methyl-butyramide] was run?
**A.** Its Ki is 23.4 nM.

**Q.** Which Ki [1] does the source give for CN(Cc1ccc(Cl)c(Cl)c1)C(=O)C(F)(CCN1CCC(N(C)S(C)(=O)=O)CC1)c1ccc(Cl)c(Cl)c1 (stereo not shown) [Example 56, N-(3,4-Dichloro-benzyl)-2-(3,4-dichloro-phenyl)-2-fluoro-4-[4-(methanesulfonyl-methyl-amino)-piperidin-1-yl]-N-methyl-butyramide] here?
**A.** Its Ki is 22.8 nM.

**Q.** How did the Ki [1] turn out when CN(Cc1ccc(C(F)(F)F)c(F)c1)C(=O)C(C)(CCN1CCC(N(C2CC2)S(C)(=O)=O)CC1)c1ccc(Cl)c(Cl)c1 (stereo not shown) [Example 57, 4-[4-(Cyclopropyl-methanesulfonyl-amino)-piperidin-1-yl]-2-(3,4-dichloro-phenyl)-N-(3-fluoro-4-trifluoromethyl-benzyl)-2,N-dimethyl-butyramide] was run?
**A.** Its Ki is 5.9 nM.

**Q.** And the Ki [2]?
**A.** The Ki was 5.9 nM.

**Q.** How did the Ki [1] turn out when CN(Cc1ccc(Cl)c(C(F)(F)F)c1)C(=O)C(C)(CCN1CCC(N(C2CC2)S(C)(=O)=O)CC1)c1ccc(Cl)c(Cl)c1 (stereo not shown) [Example 58, N-(4-Chloro-3-trifluoromethyl-benzyl)-4-[4-(cyclopropyl-methanesulfonyl-amino)-piperidin-1-yl]-2-(3,4-dichloro-phenyl)-2,N-dimethyl-butyramide] was run?
**A.** The Ki was 3.6 nM.

**Q.** What about the Ki [2] of the same molecule?
**A.** The Ki was 3.6 nM.

**Q.** With CN(Cc1ccc(F)c(C(F)(F)F)c1)C(=O)C(C)(CCN1CCC(N(C2CC2)S(C)(=O)=O)CC1)c1ccc(Cl)c(Cl)c1 (stereo not shown) [Example 59, 4-[4-(Cyclopropyl-methanesulfonyl-amino)-piperidin-1-yl]-2-(3,4-dichloro-phenyl)-N-(4-fluoro-3-trifluoromethyl-benzyl)-2,N-dimethyl-butyramide] as the molecule, how does the Ki [1] read?
**A.** Its Ki is 4.3 nM.

**Q.** What about the Ki [2] of the same molecule?
**A.** The Ki was 4.3 nM.

**Q.** For CN(Cc1ccc(Cl)c(Cl)c1)C(=O)C(C)(CCN1CCC(N(C2CC2)S(C)(=O)=O)CC1)c1ccc(Cl)c(Cl)c1 (stereo not shown) [Example 60, 4-[4-(Cyclopropyl-methanesulfonyl-amino)-piperidin-1-yl]-N-(3,4-dichloro-benzyl)-2-(3,4-dichloro-phenyl)-2,N-dimethyl-butyramide], which Ki [1] is on record?
**A.** The Ki was 2.6 nM.

**Q.** And the Ki [2]?
**A.** The Ki was 2.6 nM.

**Q.** How did the Ki [1] turn out when CN(Cc1ccc(C(F)(F)F)c(F)c1)C(=O)C(F)(CCN1CCC(NS(C)(=O)=O)CC1)c1ccc(Cl)c(Cl)c1 (stereo not shown) [Example 61, 2-(3,4-Dichloro-phenyl)-2-fluoro-N-(3-fluoro-4-trifluoromethyl-benzyl)-4-(4-methanesulfonyl-amino-piperidin-1-yl)-N-methyl-butyramide] was run?
**A.** Its Ki is 80 nM.

**Q.** Which Ki [1] does the source give for CN(Cc1ccc(Cl)cc1)C(=O)C(F)(CCN1CCC(NS(C)(=O)=O)CC1)c1ccc(Cl)c(Cl)c1 (stereo not shown) [Example 62, N-(4-Chloro-benzyl)-2-(3,4-dichloro-phenyl)-2-fluoro-4-(4-methanesulfonyl-amino-piperidin-1-yl)-N-methyl-butyramide] here?
**A.** The Ki was 105 nM.

**Q.** For CN(Cc1ccc(Cl)c(C(F)(F)F)c1)C(=O)C(F)(CCN1CCC(NS(C)(=O)=O)CC1)c1ccc(Cl)c(Cl)c1 (stereo not shown) [Example 63, N-(4-Chloro-3-trifluoromethyl-benzyl)-2-(3,4-dichloro-phenyl)-2-fluoro-4-(4-methanesulfonyl-amino-piperidin-1-yl)-N-methyl-butyramide], which Ki [1] is on record?
**A.** The Ki was 117 nM.

**Q.** For CN(Cc1ccc(F)c(C(F)(F)F)c1)C(=O)C(F)(CCN1CCC(NS(C)(=O)=O)CC1)c1ccc(Cl)c(Cl)c1 (stereo not shown) [Example 64, 2-(3,4-Dichloro-phenyl)-2-fluoro-N-(4-fluoro-3-trifluoromethyl-benzyl)-4-(4-methanesulfonyl-amino-piperidin-1-yl)-N-methyl-butyramide], which Ki [1] is on record?
**A.** Its Ki is 122 nM.

**Q.** CN(Cc1cccc(Cl)c1)C(=O)C(F)(CCN1CCC(NS(C)(=O)=O)CC1)c1ccc(Cl)c(Cl)c1 (stereo not shown) [Example 65, N-(3-Chlorobenzyl)-2-(3,4-dichloro-phenyl)-2-fluoro-4-(4-methanesulfonyl-amino-piperidin-1-yl)-N-methyl-butyramide] was tested. Which Ki [1] did it give?
**A.** Its Ki is 307 nM.

**Q.** How did the Ki [1] turn out when CN(Cc1ccc(C(F)(F)F)cc1)C(=O)C(F)(CCN1CCC(NS(C)(=O)=O)CC1)c1ccc(Cl)c(Cl)c1 (stereo not shown) [Example 66, 2-(3,4-Dichloro-phenyl)-2-fluoro-4-(4-methanesulfonyl-amino-piperidin-1-yl)-N-methyl-N-(4-trifluoromethyl-benzyl)-butyramide] was run?
**A.** The Ki was 84.3 nM.

**Q.** For Cc1ccc(CN(C)C(=O)C(F)(CCN2CCC(NS(C)(=O)=O)CC2)c2ccc(Cl)c(Cl)c2)cc1 (stereo not shown) [Example 67, 2-(3,4-Dichloro-phenyl)-2-fluoro-4-(4-methanesulfonyl-amino-piperidin-1-yl)-N-methyl-N-(4-methyl-benzyl)-butyramide], which Ki [1] is on record?
**A.** Its Ki is 323 nM.

**Q.** For CN(Cc1ccccc1Cl)C(=O)C(F)(CCN1CCC(NS(C)(=O)=O)CC1)c1ccc(Cl)c(Cl)c1 (stereo not shown) [Example 68, N-(2-Chloro-benzyl)-2-(3,4-dichloro-phenyl)-2-fluoro-4-(4-methanesulfonyl-amino-piperidin-1-yl)-N-methyl-butyramide], which Ki [1] is on record?
**A.** The Ki was 159 nM.

**Q.** CCN(C1CCN(CCC(C)(C(=O)N(C)Cc2ccc(C(F)(F)F)c(F)c2)c2ccc(Cl)c(Cl)c2)CC1)S(C)(=O)=O (stereo not shown) [Example 69, 2-(3,4-Dichloro-phenyl)-4-[4-(ethyl-methanesulfonyl-amino)-piperidin-1-yl]-N-(3-fluoro-4-trifluoromethyl-benzyl)-2,N-dimethyl-butyramide] was tested. Which Ki [1] did it give?
**A.** The Ki was 2.4 nM.

**Q.** And the Ki [2]?
**A.** The Ki was 2.4 nM.

**Q.** How did the Ki [1] turn out when CCN(C1CCN(CCC(C)(C(=O)N(C)Cc2ccc(Cl)c(Cl)c2)c2ccc(Cl)c(Cl)c2)CC1)S(C)(=O)=O (stereo not shown) [Example 70, N-(3,4-Dichloro-benzyl)-2-(3,4-dichloro-phenyl)-4-[4-(ethyl-methanesulfonyl-amino)-piperidin-1-yl]-2,N-dimethyl-butyramide] was run?
**A.** Its Ki is 1.2 nM.

**Q.** And the Ki [2]?
**A.** Its Ki is 1.2 nM.

**Q.** Which Ki [1] does the source give for CCN(C1CCN(CCC(C)(C(=O)NCc2ccc(Cl)c(Cl)c2)c2ccc(Cl)c(Cl)c2)CC1)S(C)(=O)=O (stereo not shown) [Example 71, N-(3,4-Dichloro-benzyl)-2-(3,4-dichloro-phenyl)-4-[4-(ethyl-methanesulfonyl-amino)-piperidin-1-yl]-2-methyl-butyramide] here?
**A.** Its Ki is 2.8 nM.

**Q.** And the Ki [2]?
**A.** Its Ki is 2.8 nM.

**Q.** CCN(C1CCN(CCC(C)(C(=O)N(C)Cc2ccc(Cl)cc2)c2ccc(Cl)c(Cl)c2)CC1)S(C)(=O)=O (stereo not shown) [Example 72, N-(4-Chloro-benzyl)-2-(3,4-dichloro-phenyl)-4-[4-(ethyl-methanesulfonyl-amino)-piperidin-1-yl]-2,N-dimethyl-butyramide] was tested. Which Ki [1] did it give?
**A.** Its Ki is 2.2 nM.

**Q.** What about the Ki [2] of the same molecule?
**A.** Its Ki is 2.2 nM.

**Q.** Which Ki [1] does the source give for CCN(C1CCN(CCC(C)(C(=O)N(C)Cc2ccc(Cl)c(C(F)(F)F)c2)c2ccc(Cl)c(Cl)c2)CC1)S(C)(=O)=O (stereo not shown) [Example 73, N-(4-Chloro-3-trifluoromethyl-benzyl)-2-(3,4-dichloro-phenyl)-4-[4-(ethyl-methanesulfonyl-amino)-piperidin-1-yl]-2,N-dimethyl-butyramide] here?
**A.** The Ki was 1.5 nM.

**Q.** What about the Ki [2] of the same molecule?
**A.** Its Ki is 1.5 nM.

**Q.** For CCN(C1CCN(CCC(C)(C(=O)N(C)Cc2ccc(F)c(C(F)(F)F)c2)c2ccc(Cl)c(Cl)c2)CC1)S(C)(=O)=O (stereo not shown) [Example 74, 2-(3,4-Dichloro-phenyl)-4-[4-(ethyl-methanesulfonyl-amino)-piperidin-1-yl]-N-(4-fluoro-3-trifluoromethyl-benzyl)-2,N-dimethyl-butyramide], which Ki [1] is on record?
**A.** Its Ki is 1.3 nM.

**Q.** And the Ki [2]?
**A.** The Ki was 1.3 nM.

**Q.** Which results are given for CCN(C1CCN(CCC(C)(C(=O)N(C)Cc2cccc(Cl)c2)c2ccc(Cl)c(Cl)c2)CC1)S(C)(=O)=O (stereo not shown) [Example 75, N-(3-Chloro-benzyl)-2-(3,4-dichloro-phenyl)-4-[4-(ethyl-methanesulfonyl-amino)-piperidin-1-yl]-2,N-dimethyl-butyramide]?
**A.** Ki [1]: 3.9 nM; Ki [2]: 3.9 nM

**Q.** Which results are given for CCN(C1CCN(CCC(C)(C(=O)N(C)Cc2ccc(C(F)(F)F)cc2)c2ccc(Cl)c(Cl)c2)CC1)S(C)(=O)=O (stereo not shown) [Example 76, 2-(3,4-Dichloro-phenyl)-4-[4-(ethyl-methanesulfonyl-amino)-piperidin-1-yl]-2,N-dimethyl-N-(4-trifluoromethyl-benzyl)-butyramide]?
**A.** Ki [1]: 1.7 nM; Ki [2]: 1.7 nM
